Data on 22 molecules can be found in patent publication US11384078B2, “5,6-fused-bicyclic compounds and compositions for the treatment of parasitic diseases” (NOVARTIS AG, priority 2017, dated 2022).

The structures appear in SMILES notation.

Holding throughout (assay type): cell-based
Assay [1] concerns Leishmania donovani axenic amastigote. As to the kind of experiment: In vitro assay for growth inhibition of Leishmania donovani axenic amastigote (Cell TiterGlo luminescence). The note with it: Leishmania donovani, L. donovani axenic amastigotes in vitro; read-out: L. donovani amastigotes EC50. In outline:
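Axenic L. donovani amastigotes (9600/well) grown at 37 °C, 5% CO2 in supplemented RPMI 1640, pH 5.5, with compound added from DMSO. After two days, viability read by CellTiter-Glo luminescence against DMSO and control-compound wells.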
Background: ATP-based viability assays read luminescence as a measure of living cells.

Assay [2] concerns L. donovani HU3 strain in mouse peritoneal macrophages. As to the kind of experiment: Assay for inhibition of parasitemia of Leishmania donovani in mouse macrophages (SYBR Green nuclei count, high-content imaging). Conditions: Leishmania donovani, Peritoneal macrophage, L. donovani in mouse peritoneal macrophages; read-out: L. donovani in Mouse Macrophages EC50. Summed up: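 Peritoneal macrophages from uninfected BALB/c mice were infected for 24 h with spleen-derived L. donovani HU3 (4×10^5 parasites per 2×10^4 macrophages), then cultured with compound for 5 days at 37° C, 5% CO2. After fixation and permeabilization, parasite nuclei were stained with SYBR Green and counted by high-content imaging.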

For assay [3], the system named is Trypanosoma cruzi amastigotes cultured in 3T3 fibroblast cells. As to the kind of experiment: Assay for growth inhibition of kinetoplastid parasite Trypanosoma cruzi (beta-galactosidase Tulahuen strain, CPRG readout). Conditions: Trypanosoma cruzi, Fibroblast, T. cruzi amastigotes in 3T3 fibroblast cells; read-out: Buckner infectious T. cruzi EC50. In outline: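 3T3 fibroblasts (1,000 cells/well) plated overnight, treated with compound in DMSO, then infected with 10,000 Lac-Z-expressing Tulahuen trypomastigotes. After 6 days, 0.6 mM CPRG with 0.6% NP-40 added for 2 h at room temperature; absorbance gives relative intracellular amastigote numbers. Benznidazole and nifurtimox serve as positive controls.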

For assay [4], the system named is Trypanosoma brucei brucei (Lister 427) strain. As to the kind of experiment: Assay for growth inhibition against Trypanosoma brucei brucei (Cell TiterGlo ATP luminescence). The note with it: Trypanosoma brucei, T. brucei brucei (Lister 427); read-out: T. Brucei (HAT) EC50. Summed up: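 T. b. brucei Lister 427 grown in HMI-9 with 10% FBS and 10% serum plus, seeded at 10,000 parasites/mL with 10-point threefold compound dilutions in duplicate, 37 °C for 2 days. Viability read as ATP luminescence 30 min after Cell TiterGlo; IC50 versus untreated controls.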

One may read the EC50 as the concentration needed to bring the measured effect to its halfway point. `O=C(Nc1ccc(F)c(-n2cc3cccnc3n2)c1)N1CC(F)C1` [Compound 311, 3-fluoro-N-(4-fluoro-3-(2H-pyrazolo[3,4-b]pyridin-2-yl)phenyl)azetidine-1-carboxamide]: the concentration giving a half-maximal response (EC50) in assay [1] worked out at 58 nM; in assay [2], 33 nM; in assay [3], 31 nM; in assay [4], 27 nM.

Take `Cc1nccnc1-c1cnc2nn(-c3cc(NC(=O)N4CC(F)C4)ccc3F)cc2c1` [Compound 312, 3-fluoro-N-{4-fluoro-3-[5-(3-methylpyrazin-2-yl)-2H-pyrazolo[3,4-b]pyridin-2-yl]phenyl}azetidine-1-carboxamide]: the EC50 in assay [1] worked out at 3 nM; in assay [2] it was 2 nM; in assay [3], 4 nM; in assay [4], 33 nM.

`O=C(Nc1ccc(F)c(-n2cc3cc(-c4ncccc4F)cnc3n2)c1)N1CCC1` [Compound 313, N-{4-fluoro-3-[5-(3-fluoropyridin-2-yl)-2H-pyrazolo[3,4-b]pyridin-2-yl]phenyl}azetidine-1-carboxamide]: the EC50 came out at 1 nM in assay [1], 2 nM in assay [2], 1 nM in assay [3] and 5 nM in assay [4].

As for `O=C(Nc1ccc(F)c(-n2cc3cc(-c4ncccc4Cl)cnc3n2)c1)N1CCC1` [Compound 315, N-{3-[5-(3-chloropyridin-2-yl)-2H-pyrazolo[3,4-b]pyridin-2-yl]-4-fluorophenyl}azetidine-1-carboxamide], the EC50 in assay [1] worked out at 2 nM; in assay [2] it was 2 nM; in assay [3], 1 nM; in assay [4], 5 nM.

With `O=C(Nc1ccc(F)c(-n2cc3cc(-c4ncccc4Cl)cnc3n2)c1)N1CC[C@@H](F)C1` [Compound 316, (3R)-N-{3-[5-(3-chloropyridin-2-yl)-2H-pyrazolo[3,4-b]pyridin-2-yl]-4-fluorophenyl}-3-fluoropyrrolidine-1-carboxamide], the concentration for a half-maximal effect (EC50) in assay [1] is 2 nM; in assay [2] it was 2 nM; in assay [3], 1 nM; in assay [4] it was 5 nM.

With `O=C(Nc1ccc(F)c(-n2cc3cc(-c4ncccc4F)cnc3n2)c1)N1CC[C@@H](F)C1` [Compound 317, (3R)-3-fluoro-N-{4-fluoro-3-[5-(3-fluoropyridin-2-yl)-2H-pyrazolo[3,4-b]pyridin-2-yl]phenyl}pyrrolidine-1-carboxamide], the EC50 in assay [1] turned out to be 2 nM; in assay [2], 2 nM; in assay [3], 1 nM; in assay [4], 5 nM.

For the molecule `Cc1cnc2nn(-c3cc(NC(=O)N4CC(F)C4)ccc3F)cc2c1` [Compound 318, 3-fluoro-N-(4-fluoro-3-{5-methyl-2H-pyrazolo[3,4-b]pyridin-2-yl}phenyl)azetidine-1-carboxamide], the EC50 in assay [1] worked out at 27 nM; in assay [2] it was 32 nM; in assay [3], 13 nM; in assay [4], 15 nM.

Take `O=C(Nc1ccc(F)c(-n2cc3cc(-n4ccnc4)cnc3n2)c1)N1CC(F)C1` [Compound 323, 3-fluoro-N-{4-fluoro-3-[5-(1H-imidazol-1-yl)-2H-pyrazolo[3,4-b]pyridin-2-yl]phenyl}azetidine-1-carboxamide]: the EC50 in assay [1] came out at 12 nM; in assay [2] it was 113 nM; in assay [3], 62 nM; in assay [4] it was 15 nM.

`O=C(Nc1ccc(F)c(-n2cc3cc(C(F)(F)F)cnc3n2)c1)N1CC(F)(F)C1` [Compound 324, 3,3-difluoro-N-{4-fluoro-3-[5-(trifluoromethyl)-2H-pyrazolo[3,4-b]pyridin-2-yl]phenyl}azetidine-1-carboxamide]: the EC50 is 15 nM in assay [1], 45 nM in assay [2], 16 nM in assay [3] and 37 nM in assay [4].

`O=C(Nc1ccc(F)c(-n2cc3cc(-c4cnn(C5CC5)c4)cnc3n2)c1)N1CC(F)C1` [Compound 325, N-{3-[5-(1-cyclopropyl-1H-pyrazol-4-yl)-2H-pyrazolo[3,4-b]pyridin-2-yl]-4-fluorophenyl}-3-fluoroazetidine-1-carboxamide]: the EC50 in assay [1] came out at 8 nM; in assay [2], 50 nM; in assay [3], 36 nM; in assay [4], 11 nM.

`O=C(Nc1ccc(F)c(-n2cc3cc(N4CC(F)(F)C4)cnc3n2)c1)C1CC1` [Compound 326, N-{3-[5-(3,3-difluoroazetidin-1-yl)-2H-pyrazolo[3,4-b]pyridin-2-yl]-4-fluorophenyl}cyclopropanecarboxamide]: the EC50 in assay [1] was 189 nM; in assay [2], 761 nM; in assay [3], 119 nM; in assay [4], 236 nM.

For the molecule `O=C(Nc1ccc(F)c(-n2cc3cc(N4CC(F)C4)cnc3n2)c1)C1CC1` [Compound 327, N-{4-fluoro-3-[5-(3-fluoroazetidin-1-yl)-2H-pyrazolo[3,4-b]pyridin-2-yl]phenyl}cyclopropanecarboxamide], the concentration giving a half-maximal response (EC50) in assay [1] amounted to 351 nM; in assay [2], 1200 nM; in assay [3], 149 nM; in assay [4], 232 nM.

On to `Cc1cn(-c2cnc3nn(-c4cc(NC(=O)N5CC(F)C5)ccc4F)cc3c2)cn1` [Compound 328, 3-fluoro-N-{4-fluoro-3-[5-(4-methyl-1H-imidazol-1-yl)-2H-pyrazolo[3,4-b]pyridin-2-yl]phenyl}azetidine-1-carboxamide], for which the concentration giving a half-maximal response (EC50) is 23 nM in assay [1], 160 nM in assay [2], 83 nM in assay [3] and 17 nM in assay [4].

In the case of `O=C(Nc1ccc(F)c(-n2cc3cc(-c4ccc(F)cn4)cnc3n2)c1)N1CC(F)C1` [Compound 329, 3-fluoro-N-{4-fluoro-3-[5-(5-fluoropyridin-2-yl)-2H-pyrazolo[3,4-b]pyridin-2-yl]phenyl}azetidine-1-carboxamide], the EC50 in assay [1] stood at 1 nM; in assay [2], 2 nM; in assay [3], 1 nM; in assay [4], 2 nM.

With `O=C(Nc1ccc(F)c(-n2cc3cc(-c4ccc(F)cn4)cnc3n2)c1)N1CCC1` [Compound 330, N-{4-fluoro-3-[5-(5-fluoropyridin-2-yl)-2H-pyrazolo[3,4-b]pyridin-2-yl]phenyl}azetidine-1-carboxamide], the EC50 is 1 nM in assay [1], 2 nM in assay [2], 1 nM in assay [3] and 1 nM in assay [4].

Consider `CN(C)c1cnc2nn(-c3cc(NC(=O)C4CC4)ccc3F)cc2c1` [Compound 331, N-{3-[5-(dimethylamino)-2H-pyrazolo[3,4-b]pyridin-2-yl]-4-fluorophenyl}cyclopropanecarboxamide], for which the EC50 stood at 217 nM in assay [1], 910 nM in assay [2], 138 nM in assay [3] and 206 nM in assay [4].

As to `O=C(Nc1ccc(F)c(-n2cc3cc(-c4ncccc4F)cnc3n2)c1)C1CC1` [Compound 332, N-{4-fluoro-3-[5-(3-fluoropyridin-2-yl)-2H-pyrazolo[3,4-b]pyridin-2-yl]phenyl}cyclopropanecarboxamide], the EC50 in assay [1] was determined as 28 nM; in assay [2], 75 nM; in assay [3], 15 nM; in assay [4], 38 nM.

Regarding `Cc1cccnc1-c1cnc2nn(-c3cc(NC(=O)c4oc(CO)nc4C)ccc3F)cc2c1` [Compound 334, N-(4-fluoro-3-(5-(3-methylpyridin-2-yl)-2H-pyrazolo[3,4-b]pyridin-2-yl)phenyl)-2-(hydroxymethyl)-4-methyloxazole-5-carboxamide], the EC50 worked out at 236 nM in assay [1], 1870 nM in assay [2], 1460 nM in assay [3] and 269 nM in assay [4].

Take `Cc1nc(C)c(C(=O)Nc2ccc(F)c(-n3cc4cc(-c5ncccc5CO)cnc4n3)c2)o1` [Compound 335]: the EC50 was 13 nM in assay [1], 111 nM in assay [2], 470 nM in assay [3] and 36 nM in assay [4].

Turning to `O=C(Nc1ccc(F)c(-n2cc3cc(-c4ccccn4)cnc3n2)c1)N1CCCC1` [Compound 336, N-{4-fluoro-3-[5-(pyridin-2-yl)-2H-pyrazolo[3,4-b]pyridin-2-yl]phenyl}pyrrolidine-1-carboxamide], the EC50 in assay [1] was 2 nM; in assay [2] it was 4 nM; in assay [3] it was 1 nM; in assay [4], 1 nM.

`O=C(Nc1ccc(F)c(-n2cc3cc(N4CC(F)(F)C4)cnc3n2)c1)N1CCCC1` [Compound 338, N-{3-[5-(3,3-difluoroazetidin-1-yl)-2H-pyrazolo[3,4-b]pyridin-2-yl]-4-fluorophenyl}pyrrolidine-1-carboxamide]: the EC50 in assay [1] stood at 5 nM; in assay [2] it was 2 nM; in assay [3] it was 3 nM; in assay [4], 3 nM.

In the case of `O=C(Nc1ccnc(-n2cc3cc(Br)cnc3n2)c1)N1CC[C@@H](F)C1` [Compound 340, (3R)-N-(2-{5-bromo-2H-pyrazolo[3,4-b]pyridin-2-yl}pyridin-4-yl)-3-fluoropyrrolidine-1-carboxamide], the EC50 in assay [1] was 225 nM; in assay [2] it was 87 nM; in assay [3] it was 61 nM; in assay [4], 35 nM.
